Consider seven molecules from US8465726B2, “Stilbene derivatives and their use for binding and imaging amyloid plaques” (The Trustees of the University of Pennsylvania, priority 2004, dated 2013).

The nature of data set [1]: Organ distribution in normal mice after iv injection. The class given is in vivo. To be noted: ICR mice. The protocol: The organs of interest were removed and weighed, and the radioactivity was assayed for radioactivity content with an automatic gamma counter. The percentage dose per organ was calculated by a comparison of the tissue counts to suitably diluted aliquots of the injected material. Total activities of blood were calculated under the assumption that they were 7% of the total body weight. The % dose/g of samples was calculated by comparing the sample counts with the count of the diluted initial dose.

The subject of data set [2] is amyloid deposits / Aβ plaques in the brain. To be noted: cited from earlier work.

The structures appear in SMILES notation.

Take `CNc1ccc(C=Cc2ccc(OCCOCCF)cc2)cc1` [12a, [4-(2-{4-[2-(2-Fluoro-ethoxy)-ethoxy]-phenyl}-vinyl)-phenyl]-methyl-amine]: the “Biodistribution, Blood” value in data set [1] (2 min after iv injection) was found to be 2.64 ± 0.55 % dose/g; in data set [1] (30 min after iv injection), 2.42 ± 0.27 % dose/g; in data set [1] (1 hr after iv injection) it was 2.04 ± 0.16 % dose/g; in data set [1] (2 hr after iv injection) it was 2.77 ± 0.63 % dose/g. Moreover, the “Biodistribution, Bone” value in data set [1] (2 min after iv injection) stood at 1.89 ± 0.25 % dose/g; in data set [1] (30 min after iv injection) it was 1.40 ± 0.11 % dose/g; in data set [1] (1 hr after iv injection) it was 1.71 ± 0.23 % dose/g; in data set [1] (2 hr after iv injection), 2.88 ± 0.07 % dose/g. Also, the “Biodistribution, Brain” value in data set [1] (2 min after iv injection) was found to be 8.14 ± 2.03 % dose/g; in data set [1] (30 min after iv injection), 3.00 ± 0.16 % dose/g; in data set [1] (1 hr after iv injection) it was 2.60 ± 0.22 % dose/g; in data set [1] (2 hr after iv injection) it was 2.14 ± 0.06 % dose/g.

As for `CNc1ccc(C=Cc2ccc(OCCOCCOCC[18F])cc2)cc1` [[^18F]12b, [^18F]{4-[2-(4-{2-[2-(2-Fluoro-ethoxy)-ethoxy]-ethoxy}-phenyl)-vinyl]-phenyl}-methyl-amine], the “Biodistribution, Bone” value in data set [1] (2 hr after iv injection) was 2.74 % dose/g.

Regarding `CNc1ccc(C=Cc2ccc(OCCOCCOCCOCCF)cc2)cc1` [12c, (4-{2-[4-(2-{2-[2-(2-Fluoro-ethoxy)-ethoxy]-ethoxy}-ethoxy)-phenyl]-vinyl}-phenyl)-methyl-amine], the “Biodistribution, Blood” value stood at 3.22 ± 0.20 % dose/g in data set [1] (2 min after iv injection), 1.88 ± 0.08 % dose/g in data set [1] (30 min after iv injection), 1.81 ± 0.48 % dose/g in data set [1] (1 hr after iv injection) and 1.60 ± 0.12 % dose/g in data set [1] (2 hr after iv injection). The “Biodistribution, Bone” value in data set [1] (2 min after iv injection) turned out to be 2.31 ± 0.12 % dose/g; in data set [1] (30 min after iv injection), 1.00 ± 0.02 % dose/g; in data set [1] (1 hr after iv injection), 0.98 ± 0.27 % dose/g; in data set [1] (2 hr after iv injection), 1.50 ± 0.05 % dose/g. In addition, the “Biodistribution, Brain” value in data set [1] (2 min after iv injection) turned out to be 6.59 ± 0.19 % dose/g; in data set [1] (30 min after iv injection), 1.27 ± 0.03 % dose/g; in data set [1] (1 hr after iv injection), 1.20 ± 0.10 % dose/g; in data set [1] (2 hr after iv injection) it was 1.21 ± 0.06 % dose/g.

Take `CNc1ccc(C=Cc2ccc(OCCOCCOCCOCCOCCF)cc2)cc1` [12d, [4-(2-{4-[2-(2-{2-[2-(2-Fluoro-ethoxy)-ethoxy]-ethoxy}-ethoxy)-ethoxy]-phenyl}-vinyl)-phenyl]-methyl-amine]: the “Biodistribution, Blood” value in data set [1] (2 min after iv injection) was 4.99 ± 0.38 % dose/g; in data set [1] (30 min after iv injection) it was 4.66 ± 0.06 % dose/g; in data set [1] (1 hr after iv injection), 2.89 ± 0.11 % dose/g; in data set [1] (2 hr after iv injection), 2.59 ± 0.18 % dose/g. Further, the “Biodistribution, Bone” value in data set [1] (2 min after iv injection) worked out at 2.24 ± 0.21 % dose/g; in data set [1] (30 min after iv injection) it was 2.29 ± 0.21 % dose/g; in data set [1] (1 hr after iv injection), 1.66 ± 0.01 % dose/g; in data set [1] (2 hr after iv injection) it was 2.35 ± 0.27 % dose/g. Besides, the “Biodistribution, Brain” value was determined as 7.30 ± 1.05 % dose/g in data set [1] (2 min after iv injection), 2.43 ± 0.03 % dose/g in data set [1] (30 min after iv injection), 1.77 ± 0.11 % dose/g in data set [1] (1 hr after iv injection) and 1.62 ± 0.03 % dose/g in data set [1] (2 hr after iv injection).

Consider `CC(=C(C#N)C#N)c1ccc2cc(N(C)CCF)ccc2c1` [[^18F]FDDNP], for which the “relative residence time of the brain region of interest versus the pons” value in data set [2] (AD patients versus comparison subjects, PET) is recorded as “significantly higher in AD patients”.

As for `[11CH3]Nc1ccc(-c2nc3ccc(O)cc3s2)cc1` [[^11C]6-OH-BTA-1], the “retention in the cortex” value in data set [2] (patients with diagnosed mild AD) is given as “marked retention”.

For the molecule `[11CH3]Nc1ccc(/C=C/c2ccc(O)cc2)cc1` [[^11C]SB-13], the “accumulation in the frontal cortex” value in data set [2] (mild to moderate AD patients, not in age-matched control subjects) is recorded as “high accumulation”.
